Experimental data from patent US20230232827A1, “METHOD FOR C[…] RUST FUNGUS RESISTANT TO QoI FUNGICIDES” (SUMITOMO CHEMICAL COMPANY, LIMITED, priority 2020, published 2023).

Tested on: soybean rust fungus (Phakopsora pachyrhizi) having an amino acid substitution of F129L in a mitochondrial cytochrome b protein
Assay: Leaf disc test of control of soybean rust (lesion area) after spraying the test compound
Format: in vivo
Settings: Comparative Test Example 1, according to Test Example 1
Protocol: A true leaf of a soybean (cultivar: Kurosengoku) was cut into a diameter of 1 cm to prepare each leaf disc. To each well of a 24 well microplate was dispensed 1 mL of an agar medium (agar concentration 1.2%), and then one of said leaf disc was placed on each well. To a mixture of Sorpol (registered trademark) 1200KX (0.5 μL), DMSO (4.5 μL), and xylene (5 μL) was added a DMSO solution (20 μL) comprising a test compound (10000 ppm), and the resulting mixture was mixed. The resulting mixture was diluted with ion exchange water to prepare a spray solution comprising a prescribed concentration of the test compound. Said spray solution was sprayed into each leaf disc at a ratio of 10 μL per leaf disc. After 1 day, an aqueous suspension of spores of soybean rust fungus (Phakopsora pachyrhizi) having an amino acid substitution of F129L in a mitochondrial cytochrome b protein (1.0×10^5/mL) was inoculated by spraying on each leaf disc. After the inoculation, the microplate was placed into an artificial climate chamber (Lighting: 6 hours, Lights-out: 18 hours, Temperature: 23° C., Humidity: 60%). After 1 day, the leaf discs were air-dried until water droplets on the surfaces of the leaf discs disappeared, and the microplate was placed into the artificial climate chamber again for 12 days. Then, lesion area of soybean rust was investigated. As a result, when the prescribed concentration was 50 ppm, each lesion area of leaf disc treated with any one of the Present compound 2 to 13, 15 to 30, 33 to 40, 42 to 49, 52 to 56, 58, 60, 65, 66, or 74 to 79 as the test compound was 30% or less relative to the lesion area of non-treated leaf disc. Here, the term of “non-treated” means that a spray solution comprising a test compound was not sprayed into a leaf disc.
Each test is carried out according to the Test Example 1 by using any one of the Present compound S as the test compound with a prescribed concentration of 12.5 ppm. As a result, control effects on soybean rust can be confirmed in the leaf discs treated with test compounds.
Each test is carried out according to the Test Example 1 by using any one of the Present compound S as the test compound with a prescribed concentration of 3.1 ppm. As a result, control effects on soybean rust can be confirmed in the leaf discs treated with test compounds.
Each test was carried out according to the Test Example 1 by using the Present compound 4, 3, 11, or 42, or azoxystrobin, dimoxystrobin, or metominostrobin as the test compound with a prescribed concentration of 50 ppm.

Structure (SMILES)	Lesion area (%) at the concentration of 50 ppm [%]
CO/C=C(/C(=O)OC)c1ccccc1Oc1cc(Oc2ccccc2C#N)ncn1 [Azoxystrobin, reference compound]	100
CNC(=O)/C(=N/OC)c1ccccc1COc1cc(C)ccc1C [Dimoxystrobin, reference compound]	100
CNC(=O)/C(=N/OC)c1ccccc1Oc1ccccc1 [Metominostrobin, reference compound]	100
CO/C=C(/C(=O)OC)n1ncc2ccc(-c3ccccc3)cc21 [Present compound 3]	0
CO/C=C(/C(=O)OC)n1c2ccccc2c2ccc(Br)cc21 [Present compound 4]	0
CO/C=C(/C(=O)OC)n1ccc2ccc(C#CC3CC3)cc21 [Present compound 11]	0
CO/C=C(/C(=O)OC)n1ccc2ccc(/C(C)=N/OC)cc21 [Present compound 42]	0
